Test results taken from patent publication US8236792B2, “Substituted pyrrolidine amides as modulators of the histamine H3 receptor” (Janssen Pharmaceutica NV, priority 2008, dated 2012).

These compounds were tested against human H3 receptor (Homo sapiens, UniProt Q9Y5N1) (assay: H3 Receptor Binding (Human) Method 2, [125I]-iodoproxyfan competitive radioligand binding). Conditions: not given.
Design: expressed in transfected cells

Chain of human H3 receptor (Q9Y5N1 whole entry): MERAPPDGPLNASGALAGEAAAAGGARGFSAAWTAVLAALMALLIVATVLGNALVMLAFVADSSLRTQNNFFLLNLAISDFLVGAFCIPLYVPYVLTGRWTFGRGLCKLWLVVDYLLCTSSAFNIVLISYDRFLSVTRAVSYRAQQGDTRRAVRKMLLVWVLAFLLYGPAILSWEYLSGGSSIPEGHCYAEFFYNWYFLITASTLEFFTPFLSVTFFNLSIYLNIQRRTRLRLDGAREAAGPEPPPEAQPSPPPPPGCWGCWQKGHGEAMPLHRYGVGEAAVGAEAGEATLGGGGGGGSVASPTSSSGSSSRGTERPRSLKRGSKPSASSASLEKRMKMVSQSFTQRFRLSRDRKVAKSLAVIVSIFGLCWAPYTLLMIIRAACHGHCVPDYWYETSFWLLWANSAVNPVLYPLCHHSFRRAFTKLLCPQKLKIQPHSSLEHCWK

**Q.** How did the Ki turn out when `CC(=O)N1C[C@H](Oc2cccc(F)c2)C[C@H]1C(=O)N1CCCN(C2CCC2)CC1` [Example 129, (2S,4R)-1-[2-(4-Cyclobutyl-[1,4]diazepane-1-carbonyl)-4-(3-fluoro-phenoxy)-pyrrolidin-1-yl]-ethanone] was run?
**A.** 379 nM

**Q.** `CC(=O)N1C[C@H](Oc2cccc(F)c2)C[C@@H]1C(=O)N1CCCN(C2CCC2)CC1` [Example 130] was tested. Which Ki did it give?
**A.** 569 nM

Same assay, conditions: Method 2; SK-N-MC cell membranes; [125I]-iodoproxyfan 1 nM; apparent Ki; free base or hydrochloride salt; average of results; read-out: Human H3 Ki

**Q.** With `CCOC(=O)N1C[C@@H](Oc2cccc(F)c2)C[C@@H]1C(=O)N1CCCN(C2CCC2)CC1` [Example 127, (2R,4S)-2-(4-Cyclobutyl-[1,4]diazepane-1-carbonyl)-4-(3-fluoro-phenoxy) pyrrolidine-1-carboxylic acid ethyl ester] as the compound, how does the Ki read?
**A.** 16 nM

**Q.** How did the Ki turn out when `O=C([C@@H]1C[C@H](Oc2ccc(F)cc2)CN1C1CC1)N1CCCN(C2CCC2)CC1` [Example 141, (2S,4S)-2-(4-Cyclobutyl-[1,4]diazepan-1-yl)-[1-cyclopropyl-4-(4-fluoro-phenoxy)-pyrrolidin-2-yl]-methanone] was run?
**A.** 55 nM

**Q.** With `O=C([C@H]1C[C@H](Oc2ccc(F)cc2)CN1C1CC1)N1CCCN(C2CCC2)CC1` [Example 142, (2R,4S)-1-Cyclopropyl-2-(4-cyclobutyl-[1,4]diazepane-1-carbonyl)-4-(4-fluoro-phenoxy)-pyrrolidine] as the compound, how does the Ki read?
**A.** 13 nM

**Q.** How did the Ki turn out when `O=C(N1CCCN(C2CCC2)CC1)[C@@]1(Cc2cccc(F)c2)CCCN1` [Example 168, (2S)-2-(4-Cyclobutyl-[1,4]diazepane-1-carbonyl)-2-(3-fluoro-benzyl)-pyrrolidine] was run?
**A.** 44 nM

**Q.** `O=C(N1CCCN(C2CCC2)CC1)[C@@]1(Cc2ccc(C(F)(F)F)cc2)CCCN1` [Example 170, (2S)-(4-Cyclobutyl-[1,4]diazepan-1-yl)-[2-(4-trifluoromethyl-benzyl)-pyrrolidin-2-yl]-methanone] was tested. Which Ki did it give?
**A.** 201 nM

**Q.** With `O=C(N1CCCN(C2CCC2)CC1)[C@@]1(Cc2ccccc2)CCCN1` [Example 171, (2S)-(2-Benzyl-pyrrolidin-2-yl)-(4-cyclobutyl-[1,4]diazepan-1-yl)-methanone] as the compound, how does the Ki read?
**A.** 11 nM

Same assay, conditions: read-out: Human H3 Ki

**Q.** Which Ki does the source give for `CCC(=O)N1C[C@@H](Oc2cccc(F)c2)C[C@@H]1C(=O)N1CCCN(C2CCC2)CC1` [Example 125, (2R,4S)-1-[2-(4-Cyclobutyl-[1,4]diazepane-1-carbonyl)-4-(3-fluoro-phenoxy)-pyrrolidin-1-yl]-propan-1-one] here?
**A.** 3 nM

**Q.** `CC(=O)N1C[C@@H](Oc2ccccn2)C[C@@H]1C(=O)N1CCCN(C2CCC2)CC1` [Example 132, (2R,4S)-1-[2-(4-Cyclobutyl-[1,4]diazepane-1-carbonyl)-4-(Pyridin-2-yloxy)-pyrrolidin-1-yl]-ethanone] was tested. Which Ki did it give?
**A.** 3 nM

**Q.** Which Ki does the source give for `CC(=O)N1C[C@@H](Oc2cccnc2)C[C@@H]1C(=O)N1CCCN(C2CCC2)CC1` [Example 133, (2R,4S)-1-[2-(4-Cyclobutyl-[1,4]diazepane-1-carbonyl)-4-(Pyridin-3-yloxy)-pyrrolidin-1-yl]-ethanone] here?
**A.** 3 nM

**Q.** For `CC(=O)N1C[C@@H](Oc2cccs2)C[C@@H]1C(=O)N1CCCN(C2CCC2)CC1` [Example 135, (2R,4S)-1-[2-(4-Cyclobutyl-[1,4]diazepane-1-carbonyl)-4-(thiophen-2-yloxy)-pyrrolidin-1-yl]-ethanone], which Ki is on record?
**A.** 3 nM

**Q.** With `CC(=O)N1C[C@@H](Oc2ccc3c(c2)OCCO3)C[C@@H]1C(=O)N1CCCN(C2CCC2)CC1` [Example 136, (2R,4S)-1-[2-(4-Cyclobutyl-[1,4]diazepane-1-carbonyl)-4-(2,3-dihydro-benzo[1,4]dioxin-6-yloxy)-pyrrolidin-1-yl]-ethanone] as the compound, how does the Ki read?
**A.** 2 nM

**Q.** For `CS(=O)(=O)N1C[C@@H](Oc2ccc(F)cc2)C[C@@H]1C(=O)N1CCCN(C2CCC2)CC1` [Example 140, (2R,4S)-(4-Cyclobutyl-[1,4]diazepan-1-yl)-[4-(4-fluoro-phenoxy)-1-methanesulfonyl-pyrrolidin-2-yl]-methanone], which Ki is on record?
**A.** 1 nM

**Q.** With `CC(C)(C)OC(=O)N1CC[C@@H](Oc2cccc(F)c2)[C@H]1C(=O)N1CCCN(C2CCC2)CC1` [Example 143, (2S,3R)-2-(4-Cyclobutyl-[1,4]diazepane-1-carbonyl)-3-(3-fluoro-phenoxy)-pyrrolidine-1-carboxylic acid tert-butyl ester] as the compound, how does the Ki read?
**A.** 845 nM

**Q.** `CC(C)(C)OC(=O)N1CC[C@@H](Oc2ccc(F)cc2)[C@H]1C(=O)N1CCCN(C2CCC2)CC1` [Example 144, (2S,3R)-2-(4-Cyclobutyl-[1,4]diazepane-1-carbonyl)-3-(4-fluoro-phenoxy)-pyrrolidine-1-carboxylic acid tert-butyl ester] was tested. Which Ki did it give?
**A.** 957 nM

**Q.** With `CC(C)(C)OC(=O)N1CC[C@@H](Oc2ccc(C#N)cc2)[C@H]1C(=O)N1CCCN(C2CCC2)CC1` [Example 145, (2S,3R)-3-(4-Cyano-phenoxy)-2-(4-cyclobutyl-[1,4]diazepane-1-carbonyl)-pyrrolidine-1-carboxylic acid tert-butyl ester] as the compound, how does the Ki read?
**A.** 1100 nM

**Q.** For `CSc1ccc(O[C@@H]2CCN(C(=O)OC(C)(C)C)[C@@H]2C(=O)N2CCCN(C3CCC3)CC2)cc1` [Example 146, (2S,3R)-2-(4-Cyclobutyl-[1,4]diazepane-1-carbonyl)-3-(4-methylsulfanyl-phenoxy)-pyrrolidine-1-carboxylic acid tert-butyl ester], which Ki is on record?
**A.** 1470 nM

**Q.** Which Ki does the source give for `CC(C)(C)OC(=O)N1C[C@@H](OCc2cccc(F)c2)C[C@@H]1C(=O)N1CCCN(C2CCC2)CC1` [Example 147, (2R,4S)-2-(4-Cyclobutyl-[1,4]diazepane-1-carbonyl)-4-(3-fluoro-benzyloxy)-pyrrolidine-1-carboxylic acid tert-butyl ester] here?
**A.** 8 nM

**Q.** For `CC(C)(C)OC(=O)N1C[C@@H](OCc2ccc(F)cc2)C[C@@H]1C(=O)N1CCCN(C2CCC2)CC1` [Example 148, (2R,4S)-2-(4-Cyclobutyl-[1,4]diazepane-1-carbonyl)-4-(4-fluoro-benzyloxy)-pyrrolidine-1-carboxylic acid tert-butyl ester], which Ki is on record?
**A.** 6 nM

**Q.** How did the Ki turn out when `CC(C)(C)OC(=O)N1C[C@@H](OCc2ccc(C#N)cc2)C[C@@H]1C(=O)N1CCCN(C2CCC2)CC1` [Example 149, (2R,4S)-4-(4-Cyano-benzyloxy)-2-(4-cyclobutyl-[1,4]diazepane-1-carbonyl)-pyrrolidine-1-carboxylic acid tert-butyl ester] was run?
**A.** 13 nM

**Q.** `CC(=O)N1C[C@@H](Oc2cccc(F)c2)C[C@@H]1C(=O)N1CCCNCC1` [Example 156, (2R,4S)-4-[1-Acetyl-4-(3-fluoro-Phenoxy)-pyrrolidine-2-carbonyl]-[1,4]diazepane] was tested. Which Ki did it give?
**A.** 1160 nM

**Q.** How did the Ki turn out when `CC(C)(C)OC(=O)N1CCC[C@]1(Cc1cccc(F)c1)C(=O)N1CCCN(C2CCC2)CC1` [Example 164, (2S)-2-(4-Cyclobutyl-[1,4]diazepane-1-carbonyl)-2-(3-fluoro-benzyl)-pyrrolidine-1-carboxylic acid tert-butyl ester] was run?
**A.** 53 nM

**Q.** With `CC(C)(C)OC(=O)N1CCC[C@]1(Cc1ccc(F)cc1)C(=O)N1CCCN(C2CCC2)CC1` [Example 165, (2S)-2-(4-Cyclobutyl-[1,4]diazepane-1-carbonyl)-2-(4-fluoro-benzyl)-pyrrolidine-1-carboxylic acid tert-butyl ester] as the compound, how does the Ki read?
**A.** 257 nM

**Q.** `CC(C)(C)OC(=O)N1CCC[C@]1(Cc1ccc(C(F)(F)F)cc1)C(=O)N1CCCN(C2CCC2)CC1` [Example 166, (2S)-2-(4-Cyclobutyl-[1,4]diazepane-1-carbonyl)-2-(4-trifluoromethyl-benzyl)-pyrrolidine-1-carboxylic acid tert-butyl ester] was tested. Which Ki did it give?
**A.** 60 nM

**Q.** How did the Ki turn out when `CC(C)(C)OC(=O)N1CCC[C@]1(Cc1ccccc1)C(=O)N1CCCN(C2CCC2)CC1` [Example 167, (2S)-2-Benzyl-2-(4-cyclobutyl-[1,4]diazepane-1-carbonyl)-pyrrolidine-1-carboxylic acid tert-butyl ester] was run?
**A.** 51 nM

**Q.** With `O=C(N1CCCN(C2CCC2)CC1)[C@@]1(Cc2ccc(F)cc2)CCCN1` [Example 169, (2S)-(4-Cyclobutyl-[1,4]diazepan-1-yl)-[2-(4-fluoro-benzyl)-pyrrolidin-2-yl]-methanone] as the compound, how does the Ki read?
**A.** 27 nM

**Q.** How did the Ki turn out when `CC(C)(C)OC(=O)N1C[C@H](Cc2ccccc2)C[C@H]1C(=O)N1CCCN(C2CCC2)CC1` [Example 173, (2S,4R)-4-Benzyl-2-(4-cyclobutyl-[1,4]diazepane-1-carbonyl)-pyrrolidine-1-carboxylic acid tert-butyl ester] was run?
**A.** 39 nM

**Q.** Which Ki does the source give for `CC(C)(C)OC(=O)N1C[C@H](Cc2ccc(F)cc2)C[C@H]1C(=O)N1CCCN(C2CCC2)CC1` [Example 174, (2S,4R)-2-(4-Cyclobutyl-[1,4]diazepane-1-carbonyl)-4-(4-fluoro-benzyl)pyrrolidine-1-carboxylic acid tert-butyl ester] here?
**A.** 53 nM

**Q.** How did the Ki turn out when `CC(C)(C)OC(=O)N1C[C@H](Cc2cccc(F)c2)C[C@H]1C(=O)N1CCCN(C2CCC2)CC1` [Example 175, (2S,4R)-2-(4-Cyclobutyl-[1,4]diazepane-1-carbonyl)-4-(3-fluoro-benzyl)-pyrrolidine-1-carboxylic acid tert-butyl ester] was run?
**A.** 72 nM

**Q.** Which Ki does the source give for `CC(C)(C)OC(=O)N1C[C@H](Cc2ccsc2)C[C@H]1C(=O)N1CCCN(C2CCC2)CC1` [Example 176, (2S,4R)-2-(4-Cyclobutyl-[1,4]diazepane-1-carbonyl)-4-thiophen-3-ylmethyl-pyrrolidine-1-carboxylic acid tert-butyl ester] here?
**A.** 20 nM

**Q.** Which Ki does the source give for `O=C([C@@H]1C[C@@H](Cc2ccccc2)CN1)N1CCCN(C2CCC2)CC1` [Example 177, (2S,4R)-(4-Benzyl-pyrrolidin-2-yl)-(4-cyclobutyl-[1,4]diazepan-1-yl)-methanone] here?
**A.** 263 nM

**Q.** With `O=C([C@@H]1C[C@@H](Cc2ccc(F)cc2)CN1)N1CCCN(C2CCC2)CC1` [Example 178, (2S,4R)-(4-Cyclobutyl-[1,4]diazepan-1-yl)-[4-(4-fluoro-benzyl)-pyrrolidin-2-yl]-methanone] as the compound, how does the Ki read?
**A.** 299 nM

**Q.** How did the Ki turn out when `O=C([C@@H]1C[C@@H](Cc2cccc(F)c2)CN1)N1CCCN(C2CCC2)CC1` [Example 179, (2S,4R)-(4-Cyclobutyl-[1,4]diazepan-1-yl)-[4-(3-fluoro-benzyl)-pyrrolidin-2-yl]-methanone] was run?
**A.** 348 nM

**Q.** How did the Ki turn out when `O=C([C@@H]1C[C@@H](Cc2ccsc2)CN1)N1CCCN(C2CCC2)CC1` [Example 180, (2S,4R)-(4-Cyclobutyl-[1,4]diazepan-1-yl)-(4-thiophen-3-ylmethyl-pyrrolidin-2-yl)-methanone] was run?
**A.** 50 nM
